# Data taken from paper PMC13422867, “An orally available PfPKG inhibitor blocks Plasmodium’s infection of the liver” (PLOS Pathogens, 2026).
# Values joined by “and” are separate entries in the source; they are usually repeats but may differ in a detail not shown here. Equal values may be shown once. Read-outs that look alike come from different tables or passages of the source.
# Tests used:
# [1] = tested on: P. falciparum CamWT and CamC580Y; settings: ring-stage assays; cited from earlier work
# P. falciparum 7G8 = assay: Asexual blood stage growth inhibition, SYBR Green I, 72 h; assay type: cell-based; settings: Plasmodium falciparum, mean (standard error) of 3 biological replicates
# Method: (§1) Asexual blood stage P. falciparum strains, including 3D7 and drug-resistant field isolates, were cultured using standard conditions in RPMI 1640 with 0.5% Albumax as described previously. EC₅₀ values were determined using a SYBR Green I fluorescence assay after 72 h of compound exposure. EC50 values were derived by nonlinear regression in GraphPad Prism version 10.
# P. falciparum 3D7 = assay: as above; assay type: cell-based; settings: Plasmodium falciparum, mean (standard error) of 3 biological replicates
# Method: as §1
# P. falciparum TM90_C2B = assay: as above; assay type: cell-based; settings: Plasmodium falciparum, mean (standard error) of 3 biological replicates
# Method: as §1
# P. falciparum Dd2-B2 = assay: as above; assay type: cell-based; settings: Plasmodium falciparum, mean (standard error) of 3 biological replicates
# Method: as §1
# P. falciparum K1 = assay: as above; assay type: cell-based; settings: Plasmodium falciparum, mean (standard error) of 3 biological replicates
# Method: as §1
# PfPKG [2] = settings: cited from earlier work
# CIT = biological target: T1, CIT (Homo sapiens, UniProt O14578); assay: KdElect binding affinity assay
# T1 construct: purchased Eurofins (DiscoverX)
# T1 sequence (O14578 whole entry): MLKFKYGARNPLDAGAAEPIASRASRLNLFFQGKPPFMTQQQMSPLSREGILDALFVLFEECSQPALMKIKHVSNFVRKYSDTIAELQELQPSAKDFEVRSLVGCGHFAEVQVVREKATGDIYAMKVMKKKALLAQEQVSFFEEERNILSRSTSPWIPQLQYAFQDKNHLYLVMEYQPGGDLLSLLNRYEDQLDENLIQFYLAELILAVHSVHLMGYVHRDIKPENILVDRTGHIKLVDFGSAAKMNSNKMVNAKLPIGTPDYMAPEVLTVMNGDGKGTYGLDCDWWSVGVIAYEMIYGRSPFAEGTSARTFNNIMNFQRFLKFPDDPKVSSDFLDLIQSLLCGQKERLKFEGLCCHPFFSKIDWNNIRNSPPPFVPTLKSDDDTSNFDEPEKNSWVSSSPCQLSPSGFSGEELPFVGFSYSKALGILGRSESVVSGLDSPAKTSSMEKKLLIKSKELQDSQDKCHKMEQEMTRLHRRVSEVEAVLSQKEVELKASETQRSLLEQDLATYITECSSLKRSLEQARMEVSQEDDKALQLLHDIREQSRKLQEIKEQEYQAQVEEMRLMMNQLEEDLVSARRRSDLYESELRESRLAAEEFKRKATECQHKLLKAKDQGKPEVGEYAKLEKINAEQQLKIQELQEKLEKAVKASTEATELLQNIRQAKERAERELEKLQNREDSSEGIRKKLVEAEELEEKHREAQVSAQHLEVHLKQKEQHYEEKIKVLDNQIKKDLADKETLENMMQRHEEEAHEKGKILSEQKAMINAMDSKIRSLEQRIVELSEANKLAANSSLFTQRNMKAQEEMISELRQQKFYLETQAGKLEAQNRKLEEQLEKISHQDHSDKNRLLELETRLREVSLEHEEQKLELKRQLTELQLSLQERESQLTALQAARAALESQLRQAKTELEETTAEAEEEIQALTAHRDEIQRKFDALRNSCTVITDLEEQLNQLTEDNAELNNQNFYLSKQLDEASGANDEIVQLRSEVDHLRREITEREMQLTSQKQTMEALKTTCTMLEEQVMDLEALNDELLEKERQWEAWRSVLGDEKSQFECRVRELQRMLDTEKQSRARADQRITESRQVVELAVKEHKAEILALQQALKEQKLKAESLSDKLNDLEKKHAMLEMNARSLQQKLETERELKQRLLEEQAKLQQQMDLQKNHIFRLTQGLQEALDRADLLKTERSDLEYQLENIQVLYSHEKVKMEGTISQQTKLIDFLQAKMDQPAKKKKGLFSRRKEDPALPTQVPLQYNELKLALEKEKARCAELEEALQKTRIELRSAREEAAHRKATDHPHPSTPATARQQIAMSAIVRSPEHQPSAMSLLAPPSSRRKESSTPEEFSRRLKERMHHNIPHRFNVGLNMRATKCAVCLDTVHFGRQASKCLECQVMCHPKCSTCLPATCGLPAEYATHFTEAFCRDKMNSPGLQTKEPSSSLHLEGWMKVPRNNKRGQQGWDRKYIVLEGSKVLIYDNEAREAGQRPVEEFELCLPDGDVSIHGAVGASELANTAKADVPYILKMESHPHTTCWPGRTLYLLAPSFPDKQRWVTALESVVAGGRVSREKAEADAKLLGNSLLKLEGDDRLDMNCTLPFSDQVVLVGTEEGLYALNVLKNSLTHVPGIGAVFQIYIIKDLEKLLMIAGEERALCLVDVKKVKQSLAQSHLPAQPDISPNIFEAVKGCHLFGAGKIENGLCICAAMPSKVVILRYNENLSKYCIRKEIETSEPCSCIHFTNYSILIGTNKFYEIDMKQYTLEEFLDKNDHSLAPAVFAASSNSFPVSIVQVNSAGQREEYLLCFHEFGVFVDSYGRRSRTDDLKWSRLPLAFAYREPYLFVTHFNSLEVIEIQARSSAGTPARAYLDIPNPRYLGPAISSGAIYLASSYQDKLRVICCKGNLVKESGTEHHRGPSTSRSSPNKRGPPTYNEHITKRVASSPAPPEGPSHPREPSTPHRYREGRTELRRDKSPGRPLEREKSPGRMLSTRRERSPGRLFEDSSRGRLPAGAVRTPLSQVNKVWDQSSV
# Method: Off-target kinase inhibition was assessed using the DiscoverX scanMAX (Eurofins) panel at 1 µM compound concentration. Binding affinities of CIT, ROCK1 and ROCK2 were evaluated using the KdElect assay (Eurofins).
# PfPKG [3] = biological target: PfPKG (Plasmodium falciparum, UniProt Q8I719); assay: PfPKG enzyme inhibition; assay type: biochemical; settings: for IC50: Table 7, spread in parentheses not defined
# Chain of PfPKG (Plasmodium falciparum, UniProt Q8I719) (Q8I719 whole entry): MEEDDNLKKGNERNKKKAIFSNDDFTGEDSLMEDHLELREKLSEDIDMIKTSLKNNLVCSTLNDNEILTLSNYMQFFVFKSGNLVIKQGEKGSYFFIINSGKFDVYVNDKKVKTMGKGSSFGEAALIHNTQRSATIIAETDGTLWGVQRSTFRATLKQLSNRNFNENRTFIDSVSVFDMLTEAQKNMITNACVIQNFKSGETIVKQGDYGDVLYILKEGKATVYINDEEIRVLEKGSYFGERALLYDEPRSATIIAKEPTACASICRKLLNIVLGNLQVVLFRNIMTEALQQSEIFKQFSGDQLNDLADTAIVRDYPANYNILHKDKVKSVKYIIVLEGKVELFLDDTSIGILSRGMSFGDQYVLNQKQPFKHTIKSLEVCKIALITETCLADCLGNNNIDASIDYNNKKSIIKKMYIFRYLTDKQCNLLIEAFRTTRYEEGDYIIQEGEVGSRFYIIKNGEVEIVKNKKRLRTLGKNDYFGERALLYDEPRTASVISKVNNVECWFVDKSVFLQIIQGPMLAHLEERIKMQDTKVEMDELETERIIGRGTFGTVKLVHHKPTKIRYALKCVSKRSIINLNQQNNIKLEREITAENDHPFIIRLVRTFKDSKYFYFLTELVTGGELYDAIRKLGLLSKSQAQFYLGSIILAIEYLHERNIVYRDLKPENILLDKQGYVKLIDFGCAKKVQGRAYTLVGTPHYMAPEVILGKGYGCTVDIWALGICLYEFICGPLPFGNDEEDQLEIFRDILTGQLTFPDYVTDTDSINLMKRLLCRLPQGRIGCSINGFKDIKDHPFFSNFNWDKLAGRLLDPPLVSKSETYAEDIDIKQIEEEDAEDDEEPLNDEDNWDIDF
# [4] = tested on: P. berghei sporozoites (PbLuc-GFP); assay: In vivo chemoprotective efficacy against sporozoite liver infection; design: species or system Plasmodium berghei in mice
# Method: In the first experiment, mice were administered three doses, intravenously (IV) or orally (PO), of compound (10 mg/kg) - two prior to sporozoite inoculation to block sporozoite invasion of hepatocytes and the third at 36 hpi to prevent egress of liver stages (Fig 3A). In vivo bioluminescent imaging (IVIS) of mice was utilized to detect and quantify relative parasitemia in the liver and flow cytometry was used to detect the appearance of blood stage parasites. Vehicle-treated mice were used as a negative control.
# In vivo chemoprotective efficacy was evaluated using luciferase-expressing P. berghei ANKA sporozoites. […] Liver stage parasite burden was measured 42–48 h p.i. by bioluminescence imaging (IVIS Spectrum). Photon flux from the liver region was quantified using Living Image software. All animal procedures were approved by the Rutgers Institutional Animal Care and Use Committee (IACUC).
# [5] = tested on: P. berghei sporozoites (PbLuc-GFP); assay: as above; design: species or system Plasmodium berghei in mice; settings: Intravenous, 10 mg/kg x 3
# [6] = tested on: primary simian hepatocytes; assay: Cellular cytotoxicity, hepatocyte nuclear counts; assay type: cell-based
# Excerpt: (§2) Primary cryopreserved hepatocytes were selected based on host-parasite compatibility: primary simian hepatocytes (lot OQB) for P. cynomolgi and human hepatocytes (lot BGW) for P. falciparum (BioIVT Inc., Baltimore, MD, USA). Cells were thawed according to the manufacturer’s protocol and seeded into 384-well collagen-coated assay plates (Greiner Bio-One, Monroe, NC, USA) using InVitroGro CP plating medium (BioIVT). Seeding densities were optimized for uniform monolayer formation, and hepatocytes were allowed to adhere for 24–48 hours before infection. Sporozoites were added at a 1:1.1 hepatocyte-to-sporozoite ratio within 48 hours post-seeding. Automated robotic systems were used for media changes and compound additions to ensure assay consistency and minimize variability associated with manual pipetting.
# (§3) Test compounds (PfPKG inhibitors) and assay drug controls (KDU-691 and tafenoquine) were solubilized in DMSO or PBS and serially diluted into 8- or 12-point, 2- or 3-fold series, achieving final assay concentrations ranging from 20 µM to 0.019 µM. Compounds were introduced using a calibrated pin tool controlled by robotic arms (V&P Scientific), ensuring a 1:1000 dilution into assay wells. Media were replenished daily with fresh drug-containing HCM. Compounds were added 1-hour post-infection (p.i.) (day 0) and administered daily for 3 days. Cells were fixed on day 6 p.i. of P. falciparum culture and day 8 for P. cynomolgi infected culture, coinciding with liver stage schizont maturation.
# (§4) High-content imaging was performed using the Operetta CLS system (Revvity) and image analysis was performed with Harmony software version 4.9 (Revvity, Waltham, MA, USA). Images were acquired at 10x or 20x magnification using DAPI and TRITC fluorescence channels. Following the established protocol, parasites were classified as hypnozoites or schizonts based on fluorescence intensity (mean and maximum), morphological features (cell roundness and size), and segmentation criteria. Hepatocyte nuclei were identified using Hoechst 33342 staining. Background signal was captured in uninfected, stained wells and subjected to the same parasite detection algorithm. Estimate erroneous parasite counts were then subtracted from infected well counts. Hepatocyte viability was determined by quantifying nuclear counts per well using Hoechst stain intensity thresholds. […] An in-house built Python-based image analysis script identified parasite objects using predefined fluorescence intensity thresholds. […] Parasite size was quantified by calculating the average object area (µm²) of validated parasite structures per well. […] Dose-response inhibition and IC50 were calculated relative to in-plate negative controls (DMSO-treated wells). […]
# P. cynomolgi schizont = assay: Schizont formation in primary simian hepatocytes, high-content imaging; assay type: cell-based, Plasmodium cynomolgi
# Method: (§5) Liver stage antimalarial activity was evaluated using sporozoites from P. falciparum (NF54 strain) and P. cynomolgi bastianellii (B strain). P. falciparum-infected Anopheles stephensi mosquitoes were reared at WRAIR, while P. cynomolgi-infected Anopheles dirus mosquitoes were obtained from the Armed Forces Research Institute of Medical Sciences (AFRIMS), Thailand. Sporozoites were isolated by dissecting salivary glands under sterile conditions, followed by gentle mechanical disruption. Freshly isolated sporozoites were immediately used for hepatocyte infection.
# as §2
# as §3, with “Compounds were added 1-hour post-infection (p.i.) (day 0) and administered daily for 3 days. Cells were fixed on day 6 p.i. of P. falciparum culture and day 8 for P. cynomolgi infected culture, coinciding with liver stage schizont maturation.” left out
# (§6) Cells were fixed using 4% paraformaldehyde for 20 minutes at room temperature, followed by three PBS washes, and stored at 4°C until further processing. Parasite detection was performed using species-specific primary antibodies, with P. cynomolgi parasites labeled using a mouse monoclonal anti-Plasmodium GAPDH antibody (1.6 μg/mL, European Malaria Reagent Repository) and P. falciparum parasites detected using a rabbit polyclonal anti-PfHSP70 antibody (1:70 dilution, LS Bio, USA). […]
# (§7) High-content imaging was performed using the Operetta CLS system (Revvity) and image analysis was performed with Harmony software version 4.9 (Revvity, Waltham, MA, USA). Images were acquired at 10x or 20x magnification using DAPI and TRITC fluorescence channels. Following the established protocol, parasites were classified as hypnozoites or schizonts based on fluorescence intensity (mean and maximum), morphological features (cell roundness and size), and segmentation criteria. […]
# P. cynomolgi hypnozoite = assay: Hypnozoite formation in primary simian hepatocytes, high-content imaging; assay type: cell-based, Plasmodium cynomolgi
# Method: as §5, §2
# as §3, with “Compounds were added 1-hour post-infection (p.i.) (day 0) and administered daily for 3 days. Cells were fixed on day 6 p.i. of P. falciparum culture and day 8 for P. cynomolgi infected culture, coinciding with liver stage schizont maturation.” left out
# as §6, §7
# [7] = Cellular cytotoxicity, hepatocyte nuclear counts; assay type: cell-based, simian; settings: simian, primary cryopreserved simian hepatocytes (lot OQB); cellular cytotoxicity
# Excerpt: as §2, §3, §4
# [8] = from IC50 ≈ Kd, ∆G = -RTln(Kd), 300K
# [9] = Plasmodium cynomolgi, Hepatocyte
structure (smiles),measurement,setting,value
"C[C@H]1CN(C)CC[C@@H]1c1cc(-c2ccncc2)c(-c2ccc(F)cc2)[nH]1.Cl.Cl [RUPB-59, 4-{5-[(3R,4S)-1,3-Dimethylpiperidin-4-yl]-2-(4-fluorophenyl)-1H-pyrrol-3-yl}pyridine Dihydrochloride]",IC50 against DHA-sensitive CamWT compared with DHA-resistant CamC580Y,[1],similar
same,IC50,P. falciparum 7G8,135 nM
same,IC50,P. falciparum 3D7,80 nM
same,IC50,P. falciparum TM90_C2B,120 nM
same,IC50,P. falciparum Dd2-B2,353 nM
same,IC50,P. falciparum K1,148 nM
"C[C@@H]1CN(C)CC[C@H]1c1cc(-c2ccncc2)c(-c2ccc(F)cc2)[nH]1.Cl.Cl [RUPB-60, 4-{5-[(3S,4R)-1,3-Dimethylpiperidin-4-yl]-2-(4-fluorophenyl)-1H-pyrrol-3-yl}pyridine Dihydrochloride]","IC50 against PfPKG variants, RUPB-60 compared with RUPB-61",PfPKG [2],similar
same,IC50 against DHA-sensitive CamWT compared with DHA-resistant CamC580Y,[1],similar
same,IC50,P. falciparum 7G8,28 nM
same,IC50,P. falciparum 3D7,50 nM
same,IC50,P. falciparum TM90_C2B,80 nM
same,IC50,P. falciparum Dd2-B2,144 nM
same,IC50,P. falciparum K1,81 nM
"CN1CCC(c2cc(-c3ccncc3)c(-c3ccc(F)c(C(C)(C)O)c3)[nH]2)CC1 [RUPB-69, 2-(2-Fluoro-5-(5-(1-methylpiperidin-4-yl)-3-(pyridin-4-yl)-1H-pyrrol-2-yl)phenyl)propan-2-ol]",Kd for CIT higher compared to RUPB-61,"CIT; range over RUPB-18, -34, -69",5–125 fold
same,Kd,CIT; read-out: CIT Experimental Kd,210 nM
same,improvement in PfPKG IC50 compared to RUPB-61,PfPKG [3],10 fold
same,PfPKG (ΔG),PfPKG [3]; [8],-12.1 kcal/mol
same,PfPKG Experimental Binding (ΔG),PfPKG [3]; [8],-12.1 kcal/mol
"COC(=O)c1cc(-c2[nH]c(C3CCN(C)CC3)cc2-c2ccncc2)ccc1F [RUPB-72, Methyl 2-fluoro-5-(5-(1-methylpiperidin-4-yl)-3-(pyridin-4-yl)-1H-pyrrol-2-yl)benzoate]",IC50,PfPKG [3],17.2 nM
"CCC(O)(CC)c1cc(-c2[nH]c(C3CCN(C)CC3)cc2-c2ccncc2)ccc1F [RUPB-73, 3-(2-Fluoro-5-(5-(1-methylpiperidin-4-yl)-3-(pyridin-4-yl)-1H-pyrrol-2-yl)phenyl)pentan-3-ol]",IC50,PfPKG [3],256 nM
"CN1CCC(c2cc(-c3ccncc3)c(-c3ccc(F)cc3)[nH]2)CC1 [TSP, reference compound]",mice that did not show blood stage parasites for 3 weeks pi,"[4]; 3 intravenous doses, 10 mg/kg",2/5
same,mice displaying liver infection at 44 hpi,"[4]; IV, 10 mg/kg x 3, bioluminescent imaging",3/5
same,Prepatent period mean ± sd,"[4]; Intravenous, 10 mg/kg x 3, blood stages by flow cytometry, 10 mg/kg",4.3 days and 4.3 ± 1.1 days
same,No. of mice patent by D21/ No. of mice inoculated,[5],3/5
same,CC50,[6],8.5 µM
same,IC50,P. cynomolgi schizont,320 nM
same,IC50,P. cynomolgi hypnozoite,400 nM
"COc1cc(C)c2c(Oc3cccc(C(F)(F)F)c3)c(OC)cc(NC(C)CCCN)c2n1 (stereo not drawn) [Tafenoquine, tafenoquine]",CC50 at 3 days,[7],3.6 µM
same,IC50,P. cynomolgi schizont; [9],41 nM
same,IC50,P. cynomolgi hypnozoite; [9],85 nM
